Laboratory results reported in patent US20050186144A1, “Treatment methods” (SCHERING CORPORATION, priority 2004, published 2005).

Assays:
[1] = Phase-2 double-blind, randomized, placebo-controlled study in acute rhinosinusitis; assay type: in vivo, human; settings: Amoxicillin 500 mg three times a day
Method: A Phase-2, dose-ranging, double-blind, double-dummy, randomized, multi-center, multi-national study with 4 parallel groups was carried out. There were three treatment regimens: Mometasone Furoate Nasal Spray 200 μg was administered once a day; Mometasone Furoate Nasal Spray 200 μg also was administered twice a day; Amoxicillin 500 mg was administered three times a day. All three were administered against placebo. The regimens were administered to subjects 12 years of age or older with acute rhinosinusitis that was clinically diagnosed with symptoms present for 7 days or more and 28 days or less. Subjects with a major symptom score (sum of symptoms—facial pain, rhinorrhea, post nasal drip, sinus headache, nasal congestion—each scored 0—none-to 3—severe) greater than or equal to 5 and less than or equal to 12 at baseline with less than or equal to 3 symptoms scored severe were included. Subjects with a bacterial rhinosinusitis suspected on the presence of fever greater than or equal to 101° F./38.3° C., persistent severe unilateral facial pain/tooth pain, orbital or peri-orbital facial swelling, dental involvement; and/or worsening symptoms after initial improvement were excluded from the study. The primary efficacy variable of the study was the actual major symptom score (averaged daily for AM and PM assessments over 15 days of treatment). […]

[2] = Systemic effect of intranasal mometasone furoate (HPLC metabolite profiling of plasma radioactivity, first-pass metabolism, cortisol secretion); assay type: in vivo; settings: administered intranasally

first-pass metabolism in the liver [2]	reduction in cortisol secretion levels [2]	Compound	major symptom score, efficacy vs. placebo ([1]; p=0.275)	recurrence rate ([1]; follow-up phase (14 days), MFNS 200 μg twice a day)
–	–	CC1(C)S[C@@H]2[C@H](NC(=O)[C@H](N)c3ccc(O)cc3)C(=O)N2[C@H]1C(=O)O [Amoxicillin]	not different from placebo	8%
> 98%	minimal reduction	C[C@@H]1C[C@H]2[C@@H]3CCC4=CC(=O)C=C[C@]4(C)[C@@]3(Cl)[C@@H](O)C[C@]2(C)[C@@]1(OC(=O)c1ccco1)C(=O)CCl [mometasone furoate, Mometasone furoate]	–	–
